Columns and labels:
[1] = tested on: HFD-induced type 2 diabetic rats; assay: Oral glucose tolerance test after chronic treatment in HFD-induced type 2 diabetic rats; format: in vivo, SD rats; settings: for Glucose tolerance (AUC of OGTT versus non-treated diabetic group): 10 mg/kg/day oral, in absence of MET; for Reduction of AUC of OGTT by MET addition: hybrid 10 mg/kg/day oral plus MET 150 mg/kg/day
Text: After acclimatization period, rats were randomly divided into 25 groups, each of seven rats. The first group was normal control group which maintained on normal rat chow for the entire experiment period (16 weeks). The second group served as diabetic control group in which T2DM was induced by HFD that consisted of casein (30%), raw beef fat (Suet, 40%), wheat flour (7%), glucose (10%), salt mixture (6%), vitamin mixture (3%), and bran (4%), for 16 weeks. […] At the end of treatment regimen that lasted for four weeks; using our synthesized hybrids 10a–j with and without MET, rats were fasted overnight (12 h) with free access to water. Oral glucose tolerance test (OGTT) was performed as previously described. […] Roche Diagnostics, Rotkreuz, Switzerland).

DPP-8 = DPP-8 (Homo sapiens, UniProt Q6V1X1); assay: In vitro DPP-8 inhibition assay; format: biochemical; settings: assay buffer pH 8
DPP-8, sequence (Q6V1X1 whole entry): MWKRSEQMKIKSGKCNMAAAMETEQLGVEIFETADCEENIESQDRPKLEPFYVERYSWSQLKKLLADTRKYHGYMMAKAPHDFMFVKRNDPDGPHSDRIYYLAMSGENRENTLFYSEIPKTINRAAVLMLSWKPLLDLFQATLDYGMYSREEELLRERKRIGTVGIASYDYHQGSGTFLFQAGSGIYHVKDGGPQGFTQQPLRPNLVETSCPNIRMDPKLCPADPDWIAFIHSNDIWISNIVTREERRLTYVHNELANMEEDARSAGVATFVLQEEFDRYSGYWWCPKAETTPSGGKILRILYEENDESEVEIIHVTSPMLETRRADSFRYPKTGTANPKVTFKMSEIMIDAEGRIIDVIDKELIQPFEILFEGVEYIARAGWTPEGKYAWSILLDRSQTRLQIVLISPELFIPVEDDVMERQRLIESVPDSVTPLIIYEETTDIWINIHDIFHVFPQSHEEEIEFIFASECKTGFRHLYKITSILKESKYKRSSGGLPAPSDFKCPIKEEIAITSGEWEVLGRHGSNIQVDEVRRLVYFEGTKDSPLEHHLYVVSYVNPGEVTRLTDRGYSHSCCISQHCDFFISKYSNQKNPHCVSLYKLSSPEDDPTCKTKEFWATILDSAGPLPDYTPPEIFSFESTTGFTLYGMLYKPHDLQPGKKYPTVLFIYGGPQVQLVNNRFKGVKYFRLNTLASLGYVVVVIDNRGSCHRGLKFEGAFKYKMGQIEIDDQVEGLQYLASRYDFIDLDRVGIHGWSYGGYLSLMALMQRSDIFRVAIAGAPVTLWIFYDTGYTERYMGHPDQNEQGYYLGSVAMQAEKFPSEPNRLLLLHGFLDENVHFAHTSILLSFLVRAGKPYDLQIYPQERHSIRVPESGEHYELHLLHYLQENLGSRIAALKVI
Method: (§1) DPP-4 inhibition was assessed, as previously described, based on a continuous fluorometric assay method in which the substrate Gly-Pro-AMC (Gly-Pro-7-amido-4-methylcoumarin hydrobromide) was split by DPP-4 to release fluorescent aminomethyl coumarin (AMC). The liberated AMC was continuously monitored using an excitation wavelength of 360 nm and an emission wavelength of 460 nm using an EnVision microplate reader (PerkinElmer, Waltham, MA, USA). The reaction mixture consisted of different concentrations of the synthesized hybrids 10a–j, 20 µU/µL of recombinant human DPP-4 (Sigma Aldrich, St. Louis, MO, USA), 10 µM Gly-Pro-AMC (Sigma Aldrich, St. Louis, MO, USA) and assay buffer (150 mM NaCl, 25 mM 4-(2-hydroxyethyl)-1-piperazineethanesulfonic acid (HEPES), 0.12 mg/ml bovine serum albumin (BSA)) and pH of 7.5. The assay was carried out in quadruplicate. IC50 was calculated using GraphPad Prism 8 software (San Diego, CA, USA). Similar to the DPP-4 assay, DPP-8 and DPP-9 inhibition assay was performed and the pH of the assay buffer was 8.

[2] = Antioxidant activity (DPPH method); settings: 100 µM compound, 100 µM DPPH, 20 min, mean ± SE of four replicates
Method: DPPH (1,1-diphenyl-2-picrylhydrazyl) free radical is stable at rt and has a purple colour with a maximum absorption at 517 nm. This free radical is reduced by antioxidant molecules into 1,1-diphenyl-2-picrylhydrazine with resultant discolouration of free radical; this discolouration is stoichiometric with regard to the captured electrons. Accordingly, the fluctuation in the absorbance is an indicator for the antioxidant activity. Our synthesized hybrids 10a–j (100 µM) were mixed with DPPH (100 µM) and left for 20 min at rt, the absorbance was measured at 517 nm.

recombinant human DPP-4 = target: T1, recombinant human DPP-4 (Homo sapiens, UniProt P27487); assay: In vitro DPP-4 inhibition assay (continuous fluorometric, Gly-Pro-AMC); format: biochemical; settings: for IC50: recombinant human DPP-4, mean ± SE of four replicates; for Fold DPP-4 inhibitory activity relative to alogliptin: from IC50 values, versus alogliptin
T1 construct: purchased Sigma Aldrich
T1 sequence (P27487 whole entry): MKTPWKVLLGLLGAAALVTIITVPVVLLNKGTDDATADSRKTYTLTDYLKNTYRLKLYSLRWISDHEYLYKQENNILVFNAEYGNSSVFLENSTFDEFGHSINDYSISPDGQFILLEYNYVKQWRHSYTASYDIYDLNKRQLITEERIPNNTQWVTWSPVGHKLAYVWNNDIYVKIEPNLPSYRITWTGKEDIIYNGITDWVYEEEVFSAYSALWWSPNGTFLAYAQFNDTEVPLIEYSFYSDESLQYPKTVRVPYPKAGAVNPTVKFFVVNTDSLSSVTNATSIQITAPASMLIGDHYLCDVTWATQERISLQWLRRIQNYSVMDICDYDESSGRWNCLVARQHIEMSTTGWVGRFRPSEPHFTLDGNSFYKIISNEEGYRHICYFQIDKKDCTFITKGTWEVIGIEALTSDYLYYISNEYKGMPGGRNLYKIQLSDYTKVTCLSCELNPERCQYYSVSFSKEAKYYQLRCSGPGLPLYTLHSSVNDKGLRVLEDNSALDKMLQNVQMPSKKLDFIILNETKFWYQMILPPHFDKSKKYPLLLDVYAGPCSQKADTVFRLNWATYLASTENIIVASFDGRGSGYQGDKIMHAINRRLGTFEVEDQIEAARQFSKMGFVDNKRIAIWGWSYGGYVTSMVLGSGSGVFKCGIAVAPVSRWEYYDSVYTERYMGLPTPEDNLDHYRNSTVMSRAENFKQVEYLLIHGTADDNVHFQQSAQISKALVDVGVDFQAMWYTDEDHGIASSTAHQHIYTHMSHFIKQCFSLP
Method: as §1

DPP-9 = DPP-9 (Homo sapiens, UniProt Q86TI2); assay: In vitro DPP-9 inhibition assay; format: biochemical; settings: assay buffer pH 8
DPP-9, sequence (Q86TI2 whole entry): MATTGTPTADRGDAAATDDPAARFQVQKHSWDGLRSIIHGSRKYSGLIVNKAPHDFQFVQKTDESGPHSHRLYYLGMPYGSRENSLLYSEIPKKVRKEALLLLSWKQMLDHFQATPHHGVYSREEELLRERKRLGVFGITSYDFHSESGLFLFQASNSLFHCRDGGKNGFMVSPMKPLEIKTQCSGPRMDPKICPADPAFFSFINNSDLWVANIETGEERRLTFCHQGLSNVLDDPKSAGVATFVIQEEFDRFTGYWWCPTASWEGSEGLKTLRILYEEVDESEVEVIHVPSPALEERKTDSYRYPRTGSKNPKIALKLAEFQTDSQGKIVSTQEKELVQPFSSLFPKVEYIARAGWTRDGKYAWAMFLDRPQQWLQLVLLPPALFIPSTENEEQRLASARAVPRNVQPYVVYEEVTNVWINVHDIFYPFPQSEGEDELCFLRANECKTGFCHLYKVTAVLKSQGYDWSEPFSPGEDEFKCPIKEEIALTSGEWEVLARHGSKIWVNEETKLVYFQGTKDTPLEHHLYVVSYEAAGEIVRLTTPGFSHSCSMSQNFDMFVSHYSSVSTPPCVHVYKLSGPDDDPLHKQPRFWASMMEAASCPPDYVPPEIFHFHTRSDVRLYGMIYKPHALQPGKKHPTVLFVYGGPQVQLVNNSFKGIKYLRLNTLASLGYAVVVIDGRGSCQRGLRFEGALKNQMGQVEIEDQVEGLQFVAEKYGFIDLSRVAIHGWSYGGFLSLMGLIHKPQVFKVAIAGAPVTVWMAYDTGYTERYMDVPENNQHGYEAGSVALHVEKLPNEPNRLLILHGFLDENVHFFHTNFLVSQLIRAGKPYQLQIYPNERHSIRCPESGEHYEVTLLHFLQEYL
Method: as §1

[3] = Cytotoxicity test (MTT assay); format: cell-based; settings: human, normal hepatic LO2 cells, read-out: cell viability
Method: We assessed any possible cytotoxic effect of our synthesized hybrids 10a–j on hepatic LO2 cells using MTT assay. The cells, in DMEM (Gibco, Invitrogen), were seeded in 96 well plates at density of 1 × 10^4/well. The synthesized compounds were added to the cells and incubated for 48 h at 37 °C and 5% CO2. Then, MTT reagent was added and the cells were re-incubated for further 4 h. After discarding the supernatants, the formed formazan crystals were dissolved in DMSO. The intensity of color was assessed using microplate reader (Bio-Rad Laboratories, Hercules, CA, USA) at 490 nm wavelength.

blood DPP-4 activity = target: T2, blood DPP-4 activity (Rattus norvegicus, UniProt P14740); assay: In vivo DPP-4 inhibition assay (blood DPP-4 activity); settings: SD rats, single oral dose 10 mg/kg
T2 construct: from tissue; host or cells: plasma of male SD rats
T2 sequence (P14740 37-767 limits assumed): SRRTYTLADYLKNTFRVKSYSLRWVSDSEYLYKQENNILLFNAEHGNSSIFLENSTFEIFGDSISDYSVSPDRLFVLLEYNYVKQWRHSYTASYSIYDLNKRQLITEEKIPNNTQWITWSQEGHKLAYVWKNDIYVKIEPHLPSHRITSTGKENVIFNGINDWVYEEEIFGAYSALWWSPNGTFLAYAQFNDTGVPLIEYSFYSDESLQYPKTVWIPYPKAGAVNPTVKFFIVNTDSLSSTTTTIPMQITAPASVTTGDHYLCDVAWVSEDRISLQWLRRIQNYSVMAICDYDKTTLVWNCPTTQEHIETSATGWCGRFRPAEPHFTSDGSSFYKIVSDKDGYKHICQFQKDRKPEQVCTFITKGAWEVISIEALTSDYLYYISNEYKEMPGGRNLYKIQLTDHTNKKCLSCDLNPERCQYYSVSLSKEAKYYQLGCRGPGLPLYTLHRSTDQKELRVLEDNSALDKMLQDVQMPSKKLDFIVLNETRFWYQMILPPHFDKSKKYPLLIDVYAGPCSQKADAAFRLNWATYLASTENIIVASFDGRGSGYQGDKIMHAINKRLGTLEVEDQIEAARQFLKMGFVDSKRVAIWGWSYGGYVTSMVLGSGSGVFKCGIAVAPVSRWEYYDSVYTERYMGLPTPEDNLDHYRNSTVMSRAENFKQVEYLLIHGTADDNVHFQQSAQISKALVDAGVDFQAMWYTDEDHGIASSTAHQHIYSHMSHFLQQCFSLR
Method: The assay was performed using male SD rats (n = 3 per group), as previously described. The synthesized hybrids 10a–j were suspended in […] cellulose (CMC) and administrated orally at a single dose of 10 mg/kg.
Blood samples were collected at time points 0, 6, 12, 24, 36 and 48 h. Plasma samples were extracted and kept at −20 °C until analysis time. Similar to the in vitro DPP-4 assay principle, plasma samples were mixed with equal volumes of Gly-Pro-AMC in assay buffer (100 mM HEPES, 0.1 mg/ml BSA) and pH of 7.5. The liberated AMC was continuously monitored using an excitation wavelength of 360 nm and an emission wavelength of 460 nm using EnVision microplate reader (PerkinElmer, Waltham, MA, USA). The data were expressed as% blood DPP-4 activity.

[4] = combined with MET 150 mg/kg/day oral, four weeks (hybrid 10 mg/kg/day, alogliptin 20 mg/kg/day)

Molecule | AUC of OGTT [1, 4] [mg·min/dL] | AUC of OGTT ([1]; without MET, alogliptin 20 mg/kg/day oral, four weeks) [mg·min/dL] | IC50 (DPP-8) [µM] | % DPPH Scavenging [2] [%] | IC50 (recombinant human DPP-4) [µM] | IC50 (DPP-9) [µM] | Fold DPP-4 inhibitory activity relative to alogliptin (recombinant human DPP-4) [fold] | viability at 48 h, 30 µM ([3]; 30 µM) [%] | viability at 48 h, 50 µM [3] [%] | Glucose tolerance (AUC of OGTT versus non-treated diabetic group) ([1]; four weeks) | Reduction of AUC of OGTT by MET addition ([1]; four weeks) [%] | viability at 48 h, 10 µM ([3]; 10 µM) [%] | DPP-4 blood activity (blood DPP-4 activity; 12 h) [%] | DPP-4 blood activity (blood DPP-4 activity; 24 h) [%] | DPP-4 blood activity (blood DPP-4 activity; 48 h) [%]
Cn1c(=O)cc(N2CCC[C@@H](N)C2)n(Cc2ccccc2C#N)c1=O [Alogliptin, reference compound] | 15451 ± 110 | 20835 ± 146 |  |  |  |  |  |  |  |  |  |  |  |  | 
O=C(SC1=NC(c2ccccc2)=CC(c2ccccc2)N1)c1ccccc1CN1C(=O)c2ccccc2C1=O (stereo not drawn) [Compound 10a, S-(4,6-Diphenyl-1,6-dihydropyrimidin-2-yl)2-((1,3-dioxoisoindolin-2-yl)methyl)benzothioate] |  |  | > 100 | 73.85 ± 2.46 | 0.0197 ± 0.00127 | > 100 |  |  |  |  |  |  |  |  | 
COc1ccc(C2C=C(c3ccc(Cl)cc3)N=C(SC(=O)c3ccccc3CN3C(=O)c4ccccc4C3=O)N2)cc1 (stereo not drawn) [Compound 10b, S-(4-(4-Chlorophenyl)-6-(4-methoxyphenyl)-1,6-dihydropyrimidin-2-yl)2-((1,3-dioxoisoindolin-2-yl)methyl)benzothioate] |  |  | > 100 | 74.28 ± 1.69 | 0.00378 ± 0.00023 | > 100 | 1.5 |  |  |  |  |  |  |  | 
O=C(SC1=NC(c2ccc(Cl)cc2)=CC(c2ccc(Cl)cc2)N1)c1ccccc1CN1C(=O)c2ccccc2C1=O (stereo not drawn) [Compound 10c, S-(4,6-Bis(4-chlorophenyl)-1,6-dihydropyrimidin-2-yl)2-((1,3-dioxoisoindolin-2-yl)methyl)benzothioate] |  |  | > 100 | 52.39 ± 0.93 | 0.0147 ± 0.00082 | > 100 |  | 72.6 | 72.5 |  |  |  |  |  | 
Cc1ccc(C2=CC(c3ccc(Cl)cc3)NC(SC(=O)c3ccccc3CN3C(=O)c4ccccc4C3=O)=N2)cc1 (stereo not drawn) [Compound 10d, S-(6-(4-Chlorophenyl)-4-(p-tolyl)-1,6-dihydropyrimidin-2-yl)2-((1,3-dioxoisoindolin-2-yl)methyl)benzothioate] |  |  | > 100 | 80.16 ± 1.38 | 0.00219 ± 0.00014 | > 100 | 2.6 |  |  |  |  |  |  |  | 
CN(C)c1ccc(C2C=C(c3ccc(Br)cc3)N=C(SC(=O)c3ccccc3CN3C(=O)c4ccccc4C3=O)N2)cc1 (stereo not drawn) [Compound 10e, S-(4-(4-Bromophenyl)-6-(4-(dimethylamino)phenyl)-1,6-dihydropyrimidin-2-yl) 2-((1,3-dioxoisoindolin-2-yl)methyl)benzothioate] |  |  | > 100 | 87.21 ± 2.58 | 0.00142 ± 0.00011 | > 100 | 4 |  |  | significantly improved glucose tolerance above alogliptin | 22.82 |  |  |  | 
O=C(SC1=NC(c2ccc(Cl)cc2)=CC(c2ccccc2)N1)c1ccccc1CN1C(=O)c2ccccc2C1=O (stereo not drawn) [Compound 10f, S-(4-(4-Chlorophenyl)-6-phenyl-1,6-dihydropyrimidin-2-yl)2-((1,3-dioxoisoindolin-2-yl)methyl)benzothioate] |  |  | > 100 | 57.63 ± 2.14 | 0.0315 ± 0.00241 | > 100 |  |  |  |  |  |  |  |  | 
Nc1ccc(C2=CC(c3ccc(Cl)cc3)NC(SC(=O)c3ccccc3CN3C(=O)c4ccccc4C3=O)=N2)cc1 (stereo not drawn) [Compound 10h, S-(4-(4-Aminophenyl)-6-(4-chlorophenyl)-1,6-dihydropyrimidin-2-yl)2-((1,3-dioxoisoindolin-2-yl)methyl)benzothioate] |  |  | > 100 | 85.74 ± 2.76 | 0.0104 ± 0.00054 | > 100 |  |  | 77.5 |  |  |  |  |  | 
O=C(SC1=NC(c2ccc(Cl)cc2)=CC(c2ccco2)N1)c1ccccc1CN1C(=O)c2ccccc2C1=O (stereo not drawn) [Compound 10i, S-(4-(4-Chlorophenyl)-6-(furan-2-yl)-1,6-dihydropyrimidin-2-yl)2-((1,3-dioxoisoindolin-2-yl)methyl)benzothioate] |  |  | > 100 | 69.11 ± 1.44 | 0.00066 ± 4e-05 | > 100 | 8.6 |  |  | significantly improved glucose tolerance above alogliptin | 21.7 | 74.6 | 18.8 | 49.9 | 76
Nc1ccc(C2=CC(c3cccc4ccccc34)NC(SC(=O)c3ccccc3CN3C(=O)c4ccccc4C3=O)=N2)cc1 (stereo not drawn) [Compound 10j, S-(4-(4-Aminophenyl)-6-(naphthalen-1-yl)-1,6-dihydropyrimidin-2-yl)2-((1,3-dioxoisoindolin-2-yl)methyl)benzothioate] |  |  | > 100 | 93.52 ± 1.65 | 0.00735 ± 0.00036 | > 100 |  |  |  |  |  |  |  |  | 
S-(4-(4-Chlorophenyl)-6-(4-nitrophenyl)-1,6-dihydropyrimidin-2-yl)2-((1,3-dioxoisoindolin-2-yl)methyl)benzothioate [Compound 10g] | 13787 ± 201 |  | > 100 | 49.47 ± 1.08 | 0.00051 ± 3e-05 | > 100 | 11.2 |  |  | significantly improved glucose tolerance above alogliptin | 22.93 |  | 18.45 | 47 | 73.3
